Structures are written as SMILES.

The target of the first test is T1, Adenosine receptor A1 (Rattus norvegicus, UniProt P25099).
T1 sequence (P25099 whole entry): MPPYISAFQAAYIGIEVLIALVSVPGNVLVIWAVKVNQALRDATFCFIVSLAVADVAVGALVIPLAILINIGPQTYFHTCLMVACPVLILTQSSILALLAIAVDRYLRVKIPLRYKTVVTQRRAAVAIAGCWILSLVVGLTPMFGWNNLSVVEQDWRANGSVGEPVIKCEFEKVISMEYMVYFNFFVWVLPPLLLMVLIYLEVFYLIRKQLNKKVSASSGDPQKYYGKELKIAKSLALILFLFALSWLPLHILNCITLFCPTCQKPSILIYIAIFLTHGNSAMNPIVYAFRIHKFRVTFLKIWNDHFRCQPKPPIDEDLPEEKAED
Kind of test: Displacement of [3H]DPCPX from adenosine A1 receptor in rat brain cortex membrane in presence of 0.5 mM GTP. It counts as cell membranes. (In general: In a radioligand displacement assay an active substance lowers the binding of a labelled ligand.)
Consider `O=c1cc(-c2ccc(O)c(O)c2)oc2cc(O)cc(O)c12` [LUTEOLIN], for which the Ki is 1.55 µM.

For another test, the target named is T1, Adenosine receptor A1. In words: Displacement of [3H]DPCPX from adenosine A1 receptor in rat brain cortex membrane. Format: cell membranes.
The molecule `CC(=O)Cc1cc(O)cc2oc(CO)cc(=O)c12` yielded a Ki greater than 50 µM.
The same measure, in the same setting: the same measure for `CC(=O)Cc1cc(O)cc2oc(C)cc(=O)c12`: greater than 50 µM; for `CC(=O)[C@@H]1c2cc(O)cc(O)c2C(=O)C[C@]1(C)O` (relative stereo): greater than 50 µM.
Still for that read-out and setting: the same measure for `CC(=O)[C@@H]1c2cc(O)cc(O)c2C(=O)C[C@@]1(C)O` (relative stereo): greater than 50 µM; for `O=c1cc(-c2ccc(O)c(O)c2)oc2cc(O)cc(O)c12` [LUTEOLIN]: 1.66 µM.

A word on the Ki: it is the equilibrium dissociation constant of an inhibitor or competing ligand from its target.

The values are drawn from ChEMBL document CHEMBL1155686, “Luteolin, a compound with adenosine A(1) receptor-binding activity, and chromone and dihydronaphthalenone constituents from Senna siamea” (J Nat Prod, 2000).
